By IC50 is commonly meant the concentration that gives 50% inhibition. Usually EC50 stands for the concentration needed to bring the measured effect to its halfway point. Low values mean higher potency in that assay, high ones lower potency in that assay.

“Also recorded” adds a separate entry of the source.

The values that follow come from publication PMC4704022, “Insights on FXR selective modulation. Speculation on bile acid chemical space in the discovery of potent and selective agonists” (Scientific Reports, 2016).

Data set [1] addresses T1, GPBAR1 (Homo sapiens, UniProt Q8TDU6).
T1 construct: expressed in transfected cells; host or cells: HEK-293T
T1 sequence (Q8TDU6 1-330): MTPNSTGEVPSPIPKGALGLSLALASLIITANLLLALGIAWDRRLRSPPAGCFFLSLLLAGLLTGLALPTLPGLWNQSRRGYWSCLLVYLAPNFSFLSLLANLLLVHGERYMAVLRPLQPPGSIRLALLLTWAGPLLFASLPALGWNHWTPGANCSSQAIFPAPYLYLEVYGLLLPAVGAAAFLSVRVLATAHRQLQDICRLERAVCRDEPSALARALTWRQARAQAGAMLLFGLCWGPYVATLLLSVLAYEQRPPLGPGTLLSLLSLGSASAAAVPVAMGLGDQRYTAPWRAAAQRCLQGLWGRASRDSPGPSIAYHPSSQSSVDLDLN
Put plainly: GPBAR1 antagonism, transactivation assay in HEK-293T cells stimulated with TLCA. Type of data set: cell-based. An excerpt:
Figure 9 Antagonism on GPBAR1 by transactivation assay. (A) HEK-293T cells were transfected as described in Fig. 8. […] Results are expressed as mean ± standard error.
(§1) To investigate GPBAR1 activation, HEK-293T cells were transiently transfected with Fugene HD reagent (Promega) using the following vectors: pCMVSPORT6-human GPBAR1, pGL4.29 (Promega), a reporter vector containing a cAMP response element (CRE) cloned upstream to the luciferase reporter gene luc2P and pGL4.70. […] Dose-response curves were performed in HEK-293T cells transfected as described above and treated with increasing concentrations of 9 and 21 (from 100 nM to 50 μM). […] At 18 h post stimulations, cellular lysate was assayed for luciferase and renilla activities using the Dual-Luciferase Reporter assay system (E1980, Promega). Luminescence was measured using Glomax 20/20 luminometer (Promega). Luciferase activities were normalized with Renilla activities.

For data set [2], the target named is T1, GPBAR1. Put plainly: GPBAR1 agonism, CRE-luciferase transactivation assay in transfected HEK-293T cells. Type of data set: cell-based. To be noted: HEK-293T, compounds at 10 μM; TLCA 10 μM as positive control. The method, then: (A) HEK-293T cells were co-transfected with GPBAR1 and a reporter gene containing a cAMP responsive element in front of the luciferase gene. Twenty-four hour post transfection cells were stimulated with 7–21 (10 μM). Luciferase activity served as a measure of the rise in intracellular cAMP following activation of GPBAR1. […] Twenty-four hour post transfection cells were stimulated with increasing concentrations of each agent: range from 100 nM to 50 μM. Results are expressed as mean ± standard error.
as §1

The target in a further data set is T2, FXR (Homo sapiens, UniProt Q96RI1).
T2 construct: expressed in transfected cells; host or cells: HepG2
T2 sequence (Q96RI1 1-486): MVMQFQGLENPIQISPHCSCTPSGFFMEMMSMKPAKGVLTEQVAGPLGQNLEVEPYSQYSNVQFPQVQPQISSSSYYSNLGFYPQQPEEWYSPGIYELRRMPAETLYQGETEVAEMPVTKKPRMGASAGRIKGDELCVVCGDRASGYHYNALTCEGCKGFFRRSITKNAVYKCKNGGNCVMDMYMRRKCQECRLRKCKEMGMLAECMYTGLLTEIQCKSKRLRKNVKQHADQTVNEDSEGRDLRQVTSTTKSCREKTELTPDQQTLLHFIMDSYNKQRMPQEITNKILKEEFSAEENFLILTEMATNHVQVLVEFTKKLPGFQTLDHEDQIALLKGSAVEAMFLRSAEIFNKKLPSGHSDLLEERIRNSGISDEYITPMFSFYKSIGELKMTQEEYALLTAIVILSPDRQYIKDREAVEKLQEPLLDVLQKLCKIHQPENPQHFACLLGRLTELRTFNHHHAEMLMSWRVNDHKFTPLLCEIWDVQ
T2 sequence (P19793 1-462 partner): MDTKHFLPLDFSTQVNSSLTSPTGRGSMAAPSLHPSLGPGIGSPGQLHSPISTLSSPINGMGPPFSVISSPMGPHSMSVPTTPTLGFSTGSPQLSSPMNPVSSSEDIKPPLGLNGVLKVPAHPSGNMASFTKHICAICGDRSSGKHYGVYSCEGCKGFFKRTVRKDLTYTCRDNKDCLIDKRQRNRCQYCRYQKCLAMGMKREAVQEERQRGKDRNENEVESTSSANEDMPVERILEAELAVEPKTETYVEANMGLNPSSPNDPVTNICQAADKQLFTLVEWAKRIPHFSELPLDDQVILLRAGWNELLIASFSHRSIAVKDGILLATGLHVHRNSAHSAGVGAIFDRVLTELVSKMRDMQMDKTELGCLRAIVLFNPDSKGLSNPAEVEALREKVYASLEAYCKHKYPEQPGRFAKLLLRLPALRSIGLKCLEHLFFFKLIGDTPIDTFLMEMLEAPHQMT
Put plainly: FXR transactivation luciferase reporter assay in transfected HepG2 cells. Type of data set: cell-based. The method, then: Figure 6 Transactivation assays on FXR. (A) HepG2 cells were transfected with pSG5-FXR, pSG5-RXR, pCMV-βgal, and p(hsp27)TKLUC vectors. […] Twenty-four hour post transfection cells were stimulated with increasing concentrations of each agent: range from 100 nM to 10 μM.
To evaluate the transcriptional activity of FXR, HepG2 cells were transiently transfected with Fugene HD reagent (Promega) using the followings plasmids: pCMVSPORT-humanFXR, pSG5RXR, p(hsp27)TKLUC and pGL4.70, a plasmid containing the Renilla gene used for luciferase normalization.
On the technique in general: A reporter such as luciferase makes a cellular process visible.

Consider `CC[C@H]1[C@@H](O)[C@@H]2[C@H](CC[C@]3(C)[C@@H]([C@H](C)CCC(=O)O)CC[C@@H]23)[C@@]2(C)CCCC[C@@H]12` [compound 10, 6α-ethyl-7α-hydroxy-5β-cholan-24-oic acid], for which the “Tauro-conjugated bile acids (tMu, tCA, tHCA, tCDCA, tDCA, tLCA), plasmatic concentration” value (mice, 15 mg/kg ip, 6 h) was “unaffected”. For the same compound, the “Blood concentration of 7α-hydroxy-4-cholesten-3-one” value (mice, 15 mg/kg, indirect measure of CYP7A1 activity) was “reduced”. Moreover, the “Form of the compound found in blood” value (mouse, in vivo, ip, 15 mg/kg) was “only found in the conjugated form with taurine”. Moreover, the “GPBAR1 antagonism (in words)” value at GPBAR1 [1] (HEK-293T, 10 μM TLCA in combination with 25 μM compound) is listed as “showed inhibitory activity against GPBAR1 transactivation induced by TLCA”. The IC50 at GPBAR1 [1] (read-out: IC50, antagonism of TLCA-induced GPBAR1 transactivation) is 11 µM. Moreover, the “GPBAR1 agonism (in words)” value on GPBAR1 [2] was “inactive towards GPBAR1 in agonistic mode; also recorded: devoid of any activity toward GPBAR1 in agonistic mode”. Further, on FXR (HepG2 cells transfected with FXR, luciferase reporter, 100 nM to 10 μM), the EC50 was found to be 0.95 µM. The “FXR transactivation activity (in words)” value on FXR (HepG2 cells, compounds at 10 μM, CDCA 10 μM and 6-ECDCA 1 μM as positive controls) is “potent agonists of FXR”.
